{"source": "ChEMBL document CHEMBL1134179", "about": "“Equilibrium and kinetics studies of transnitrosation between S-nitrosothiols and thiols” (Bioorg Med Chem Lett, 2001)", "data": [{"assay": "pKa value was determined", "format": "physicochemical", "values": [{"molecule": "N[C@@H](CCC(=O)N[C@@H](CS)C(=O)NCC(=O)O)C(=O)O", "note": "[GLUTATHIONE]", "pKa": 8.75}, {"molecule": "CC(=O)NC(C(=O)O)C(C)(C)S", "note": "(stereo not given) [N-ACETYL PENICILLAMINE]", "pKa": 9.9}, {"molecule": "CC(=O)N[C@@H](CS)C(=O)O", "note": "[ACETYLCYSTEINE]", "pKa": 9.52}, {"molecule": "CCOC(=O)[C@@H](N)CS", "pKa": 6.5}, {"molecule": "CC(C)(S)[C@@H](N)C(=O)O", "note": "[PENICILLAMINE]", "pKa": 8.53}]}]}
